Data set [1] can be described thus: Plasma protein binding (ultracentrifugation). It is filed as in vitro ADME. Particulars: pooled plasma, human plasma, read-out: Plasma protein binding fu. As for the experimental part:
(iii) Plasma protein binding. Plasma protein binding was measured using an ultracentrifugation method. The assay was performed using a 96-well microtiter plate with pooled human plasma spiked with the test compound (10 μM). […] This served as the total concentration sample. After preincubation at 37°C for 1 h, duplicate aliquots of the spiked plasma were transferred to ultracentrifugation tubes and ultracentrifuged for 4 h (216,937 × g, 37°C, Beckman Optima L-80XP). […] Sample extraction. […] LC-MS/MS analysis.

The subject of data set [2] is early stage (>90% stage I-III) P. falciparum NF54 gametocytes. Conditions: cited from earlier work.
A further data set is described as follows: Kinetic solubility. The format is physicochemical. The method, then:
For kinetic solubility assays, three solutions with differing pH were prepared. Phosphate-buffered saline (PBS) was prepared by mixing KH2PO4 (0.2 g), K2HPO4 (0.115 g), NaCl (0.8 g), and KCl (0.2 mg) in purified water (100 ml). The pH was measured and adjusted using 0.05 M HCl or 0.05 M NaOH to pH 7.4. The pH 2 solution was prepared by adding HCl (37%, 83 μl) to purified water (50 ml). FaSSIF buffer at pH 6.5 was prepared by adding KH2PO4 (2.042 g) and KCl (3.728 g) to purified water (450 ml) and adjusting the pH to 6.5 using 0.05 M HCl or 0.05 M NaOH as required. Simulated intestinal fluid (SIF) (Biorelevant, London, UK) powder (5.6 mg) was then added to the buffer (25 ml) to complete the process.
(i) Kinetic solubility. Duplicate stock solutions of each compound at a concentration of 10 mM in DMSO were prepared in a 96-well plate in PBS at pH 7.4, water at pH 2, and FaSSIF buffer at pH 6.5 to a final concentration of 200 μM ([68]). These three solutions mimic the pH and conditions of the gastrointestinal tract. As the FaSSIF buffer mimics the fasted state in vitro, solubility in this buffer provides a guide as to whether compounds should be dosed with or without meals ([87]). Calibration standards were prepared for each compound in DMSO at 11, 100, and 220 μM. These standards were used to produce a calibration curve required for calculation of the concentration of each compound in the test solutions. […] Plates were agitated on a plate shaker for 2 h (500 rpm, 22°C). Sample analysis was carried out by liquid chromatography-tandem mass spectrometry (LC-MS/MS) analysis as described in “Sample analysis” below. Peak areas were integrated, and calibration curves were constructed and used to calculate the concentrations of each compound in the three buffers.
Sample extraction. […] The organic layer was then transferred and evaporated under a gentle stream of nitrogen at room temperature for 30 min. The dried samples were reconstituted in mobile phase, and a 5 μl sample was injected for LC-MS/MS analysis. The only exception was the arylurea 10, for which no liquid-liquid extraction was conducted; instead, the 200 μl acetonitrile solution was evaporated under a gentle stream of nitrogen at room temperature. The dried sample was reconstituted in the mobile phase, and a 5 μl sample was injected for LC-MS/MS analysis. The plasma samples for each compound from the in vivo studies were extracted by mixing 350 μl ethyl acetate with 15 μl of plasma sample and 35 μl of universal buffer containing internal standard at pH 8. The samples were vortexed for 1 min and centrifuged for 5 min, and the organic layer was then transferred and evaporated under a gentle stream of nitrogen at room temperature for 30 min. The dried samples were each reconstituted in the mobile phase, and a 5 μl sample was injected for LC-MS/MS analysis.
LC-MS/MS analysis. For all the artemisinins except the arylurea 10, gradient chromatography was performed on a Phenomenex (Torrance, CA, USA) Luna PFP(2) analytical column (100 Å, 5 μm, 2 by 50 mm) and an AB Sciex API 5500 mass spectrometer which was operated at unit resolution in the multiple reaction monitoring (MRM) mode. The HPLC method used was a gradient method with 5 mM ammonium acetate and 0.1% acetic acid in water as the aqueous phase and a mixture of acetonitrile and methanol (1:1 vol/vol) containing 5% of the aqueous phase as the organic phase ([89]). The arylurea 10 was analyzed using a Phenomenex Gemini NX-C18 (5 μm, 2.1 mm by 50 mm) column with an AB Sciex 3200 QTRAP mass spectrometer operated at unit resolution in the MRM mode. The HPLC method used was a gradient method with 5 mM ammonium acetate and 0.1% acetic acid in water as the aqueous phase and a mixture of acetonitrile and methanol (1:1 vol/vol). The transitions of the molecular ions were monitored, as listed in Table S8 in the supporting information. The calibration range was between 0.002 μg/ml and 6.250 μg/ml.

The mark [3] stands for this setting: Table S4, ± SEM, n = 3, ref 4 (supplement; main text 62), read-out: Early stage IC50 (Luciferase 48 h).
The mark [4] stands for this setting: FaSSIF buffer, 22 °C, pH 6.5, fassif, kinetic from dmso stock, read-out: Solubility FaSSIF pH 6.5.
[5] abbreviates: PBS, 22 °C, pH 7.4, aqueous buffer, kinetic from dmso stock, read-out: Solubility pH 7.4.
Setting [6] is: pH 2 solution (HCl in water), 22 °C, pH 2, kinetic from dmso stock, read-out: Solubility pH 2.
Setting [7] is: Table S3, ± SEM, ref 1 and 2 (supplement; main text 47, 48), read-out: Early Stage (EG, Luc 48 h) IC50.

Our source for the fraction unbound, IC50 and solubility values is PMC8284440, “Toward New Transmission-Blocking Combination Therapies: Pharmacokinetics of 10-Amino-Artemisinins and 11-Aza-Artemisinin and Comparison with Dihydroartemisinin and Artemether” (Antimicrobial Agents and Chemotherapy, 2021).

Molecules are shown by their SMILES. ≈ marks a conversion by molar mass, not a printed value. Where two headings read alike, the source gives them in different places. Where only a bound is given, the exact number is not on record here.

Take `C[C@@H]1CC[C@H]2[C@@H](C)C(=O)N[C@@H]3O[C@@]4(C)CC[C@@H]1[C@]32OO4` [11-Aza-artemisinin 11, 11-aza-artemisinin]: the fraction unbound at 4 h, 10 µM in data set [1] came out at 0.13. The IC50 (as a rule, the concentration that gives 50% inhibition) in data set [2] (setting [3]) is 170 nM. Also, the solubility (as a rule, the dissolved amount per volume that the medium holds) at 2 h is above 150 µM in the data set “Kinetic solubility” (setting [4]); 144 µM (≈ 40.6 µg/mL) in the data set “Kinetic solubility” (setting [5]); above 144 µM in the data set “Kinetic solubility” (pH 2, FaSSIF pH 6.5 and pH 7.4 together, read-out: Solubility in the three aqueous solutions); above 150 µM in “Kinetic solubility” (setting [6]).

As to `CO[C@H]1O[C@@H]2O[C@@]3(C)CC[C@H]4[C@H](C)CC[C@@H]([C@H]1C)[C@@]24OO3` [Artemether 3, artemether], in data set [1], the fraction unbound at 4 h, 10 µM worked out at 0.14. In addition, in data set [2] (setting [3]), the IC50 was 37.7 ± 2.08 nM.

For `C[C@H]1[C@H](N2CCSCC2)O[C@@H]2O[C@@]3(C)CC[C@H]4[C@H](C)CC[C@@H]1[C@@]24OO3` [Artemiside 5, artemiside], in data set [1], the fraction unbound at 4 h, 10 µM came out at 0.23. In data set [2] (setting [7]), the IC50 was 16.4 ± 1 nM. The solubility at 2 h in “Kinetic solubility” (setting [4]) is below 5 µM; in “Kinetic solubility” (setting [5]), below 5 µM; in “Kinetic solubility” (setting [6]), 12.4 µM (≈ 4.58 µg/mL).

For the molecule `C[C@H]1[C@H](N2CCS(=O)(=O)CC2)O[C@@H]2O[C@@]3(C)CC[C@H]4[C@H](C)CC[C@@H]1[C@@]24OO3` [Artemisone 6, artemisone], the fraction unbound at 4 h, 10 µM in data set [1] stood at 0.14. The concentration for half-maximal inhibition (IC50) in data set [2] (setting [7]) was 1.94 nM. In addition, the solubility at 2 h in the data set “Kinetic solubility” (setting [4]) worked out at 74.4 µM (≈ 29.9 µg/mL); in “Kinetic solubility” (setting [5]), 120 µM (≈ 48.3 µg/mL); in “Kinetic solubility” (setting [6]), 73.7 µM (≈ 29.6 µg/mL).

Take `C[C@H]1[C@H](N2CCN(C(=O)Nc3ccc(F)cc3)CC2)O[C@@H]2O[C@@]3(C)CC[C@H]4[C@H](C)CC[C@@H]1[C@@]24OO3` [Arylurea 10]: the fraction unbound at 4 h, 10 µM in data set [1] turned out to be 0.02. Also, the IC50 in data set [2] (setting [7]) was 36 ± 10.2 nM. Besides, the solubility at 2 h in the data set “Kinetic solubility” (setting [4]) is 24 µM (≈ 11.8 µg/mL); in “Kinetic solubility” (setting [5]) it was 27 µM (≈ 13.2 µg/mL); in “Kinetic solubility” (setting [6]), 10 µM (≈ 4.9 µg/mL).

For the molecule `C[C@H]1[C@@H](O)O[C@@H]2O[C@@]3(C)CC[C@H]4[C@H](C)CC[C@@H]1[C@@]24OO3` [DHA 2, dihydroartemisinin], the IC50 in data set [2] (setting [7]) is 43 ± 3.9 nM.

With `C[C@H]1[C@H](N2C=CS(=O)(=O)CC2)O[C@@H]2O[C@@]3(C)CC[C@H]4[C@H](C)CC[C@@H]1[C@@]24OO3` [M1 12], in data set [1], the fraction unbound at 4 h, 10 µM came out at 0.25. The solubility at 2 h was 57.6 µM (≈ 23 µg/mL) in “Kinetic solubility” (setting [4]), 74.5 µM (≈ 29.8 µg/mL) in the data set “Kinetic solubility” (setting [5]) and above 150 µM in the data set “Kinetic solubility” (setting [6]).

In the case of `C[C@H]1[C@H](NS(N)(=O)=O)O[C@@H]2O[C@@]3(C)CC[C@H]4[C@H](C)CC[C@@H]1[C@@]24OO3` [Sulfamide 7], the fraction unbound at 4 h, 10 µM in data set [1] was 0.17. Besides, the IC50 in data set [2] (setting [7]) is 15 ± 2 nM. For the same molecule, the solubility at 2 h was below 5 µM in the data set “Kinetic solubility” (setting [4]), 11.5 µM (≈ 4.17 µg/mL) in the data set “Kinetic solubility” (setting [5]) and above 150 µM in “Kinetic solubility” (setting [6]).
